According to patent EP1019422B1, “PHOSPHINE-SUBSTITUTED COBALTICINIUM SALTS, PRODUCTION THEREOF, AND USE OF THE SAME AS CONSTITUENTS OF CATALYSTS” (Celanese Chemicals Europe GmbH, priority 1997, dated 1999):

Experiment: Solubility properties of the compounds (Table 1)
Type: physicochemical
Conditions: for Löslichkeitseigenschaften: qualitative, solvents named in the cell
Description: In Tabelle 1 sind die erfindungsgemäßen Verbindungen bezüglich ihrer Farbe/Konsistenz und bezüglich ihrer Löslichkeitseigenschaften zusammengestellt.

Which Löslichkeitseigenschaften does the source give for `C1=CC(P(c2ccccc2)c2ccccc2)C=C1.[Co+2].[F][Sb-]([F])([F])([F])([F])[F].c1ccc(P(c2ccccc2)[c-]2cccc2)cc1` [Beispiel 2, 1,1'-Bis(diphenylphosphino)cobalticinium Hexafluoroantimonat] here?
Its Löslichkeitseigenschaften is “löslich in Methylenchlorid, Nitromethan, Methan und Aceton”.

Which Löslichkeitseigenschaften does the source give for “1,1'-Bis(diphenylphosphino)cobalticinium Tetrafluoroborat [Beispiel 1]” here?
The Löslichkeitseigenschaften was “löslich in Methylenchlorid, Nitro-methan, Methanol und Aceton”.

Which Löslichkeitseigenschaften does the source give for “1,1'-Bis(diphenylphosphinoindenyl)-cobalticinium-Tetrafluoroborat [Beispiel 8]” here?
Its Löslichkeitseigenschaften is “löslich in Methylenchlorid”.

Which Löslichkeitseigenschaften does the source give for `C1=CC(P(c2ccccc2)c2ccccc2)C=C1.O=S(=O)([O-])C(F)(F)F.[Co+2].c1ccc(P(c2ccccc2)[c-]2cccc2)cc1` [Beispiel 5, 1,1'-Bis(diphenylphosphino)cobalticinium Triflat] here?
Its Löslichkeitseigenschaften is “löslich in Methylenchlorid, Aceton, Nitromethan, Methanol”.

Which Löslichkeitseigenschaften does the source give for `C1=CC(P(c2ccccc2)c2ccccc2)C=C1.O=[N+]([O-])[O-].[Co+2].c1ccc(P(c2ccccc2)[c-]2cccc2)cc1` [Beispiel 3, 1,1'-Bis (diphenylphosphino)cobalticinium Nitrat] here?
Its Löslichkeitseigenschaften is “löslich in warmem Wasser”.

What about the “Löslichkeit in Wasser” value (water, in contrast to the other compounds of formula I and the known hexafluorophosphate) of the same molecule?
The value was “gute Löslichkeit in Wasser”.

With “1,1'-Bis(diphenylphosphino)cobalticinium Tosylat [Beispiel 4]” as the molecule, how does the Löslichkeitseigenschaften read?
Its Löslichkeitseigenschaften is “löslich in Methylenchlorid, Methanol, Aceton, Nitromethan”.

For `C1=CC(P(c2ccccc2)c2ccccc2)C=C1.[Co+2].c1ccc(P(c2ccccc2)[c-]2cccc2)cc1.c1ccc([B-](c2ccccc2)(c2ccccc2)c2ccccc2)cc1` [Beispiel 7, 1,1'-Bis(diphenylphosphino)cobalticinium Tetraphenylborat], which Löslichkeitseigenschaften is on record?
Its Löslichkeitseigenschaften is “löslich in Methylenchlorid”.

With “1,1'-Bis(diphenylphosphino)cobalticinium Trifluoracetat [Beispiel 6]” as the molecule, how does the Löslichkeitseigenschaften read?
Its Löslichkeitseigenschaften is “löslich in Methylenchlorid, Aceton, Methanol, Nitromethan”.
